# Entries after “also recorded” stand apart in the source; their conditions may differ. Read-outs that look alike come from different tables or passages of the source.
# Experiments:
# [1] = system: T cells; assay: Flow cytometry staining of Day 6 cells for expression of the transduced TCR (PRAME dextramer); type: cell-based, human
# Procedure: Flow cytometry staining was performed on Day 6 cells to assess the expression of TCR.
# [2] = system: T cells
# Procedure: On Day 3, cells were fed with media containing IL-7 and IL-15. On Day 6, cells were harvested and about half of cells were cryopreserved. The other half of cells were transferred to G-Rex 6-well plate, to which 10 ml of fresh medium was added without RA (Group 1) or with RA (100 nM/ml) (Group 2). Some Day 6 cells were analysed by flow cytometry to assess transduction efficiency. On Day 8, remaining cells were harvested and cryopreserved.
# [3] = Day 6 or Day 8 cells untreated or treated with RA, data not shown
# [4] = Day 6 or Day 8 cells, Wilcoxon test
# [5] = Day 6 or Day 8 cells, data not shown
# [6] = RA-treated Day 6 T cell products
# [7] = RA-treated Day 8 T cell products
structure (smiles),measurement,setting,value
"CC1=C(/C=C/C(C)=C/C=C/C(C)=C/C(=O)O)C(C)(C)CCC1 [RA, all-trans-retinoic acid]","% CD3+ of live lymphocytes, with vs without RA",[1]; Donor 1,comparable
same,"% CD8+ of live CD3+ cell, with vs without RA",[1]; Donor 1,comparable
same,% of CD8+ cells expressing the transduced TCR,"[1]; Donor 1, with RA treatment (ATRA 100 nM/ml)",32.9%
same,"% CD3+ of live lymphocytes, with vs without RA",[1]; Donor 2,comparable
same,"% CD8+ of live CD3+ cell, with vs without RA",[1]; Donor 2,comparable
same,% of CD8+ cells expressing the transduced TCR,"[1]; Donor 2, with RA treatment (ATRA 100 nM/ml)",13.3%
same,CD38 expression on RA-treated CD8+ T cells,[2],expressed on all RA-treated CD8+ T cells
same,RA-treated CD103+ cells that also express CCR9,[2],almost all
same,effect of RA treatment on CD45RA+ CD3+CD8+ T cells,[2]; 1-way ANOVA on 3 data sets,significantly decreases
same,effect of RA treatment on transitional CD3+CD8+ T cells,[2]; 1-way ANOVA on 3 data sets,significantly decreases
same,effect of RA treatment on CD45RO+ T cells,"[2]; 1-way ANOVA on 3 data sets, CD3+CD8+ T cells",significantly increases
same,"CD25+ cells, with vs without RA treatment","[2]; Day 6 or Day 8 T cell products, Paired t-test",does not impact; also recorded: no significant difference
same,"CD73, untreated or treated with RA",[2]; Day 6 or Day 8 cells,no difference was observed between Day 6 or Day 8 cells
same,"CD95, untreated or treated with RA",[2]; Day 6 or Day 8 cells,no difference was observed between Day 6 or Day 8 cells
same,CD73 positive cells,[2]; [3],"untreated or treated with RA (<5% positive, data not shown)"
same,CD95 positive cells,[2]; [3],"untreated or treated with RA (>90% positive, data not shown)"
same,"CD27+ cells, treated vs untreated",[2]; [4],no significant difference; also recorded: No difference was seen between treated and untreated and
same,"CD28+ cells, treated vs untreated",[2]; [4],no significant difference; also recorded: No difference was seen between treated and untreated and
same,"CD39+ cells, untreated or treated with RA",[2]; [4],no significant difference; also recorded: no difference was observed between Day 6 or Day 8 cells
same,"CXCR4+ cells, untreated or treated with RA",[2]; [4],no significant difference; also recorded: no difference was observed between Day 6 or Day 8 cells
same,"HLA-DR+ cells, untreated or treated with RA",[2]; [4],no significant difference; also recorded: no difference was observed between Day 6 or Day 8 cells
same,"CD56 (NK-related marker), treated vs untreated",[2]; [5],No difference was seen between treated and untreated and
same,"CD94 (NK-related marker), treated vs untreated",[2]; [5],No difference was seen between treated and untreated and
same,"CD314 (NK-related marker), treated vs untreated",[2]; [5],No difference was seen between treated and untreated and
same,effect of RA treatment on Tcm,[2]; FIG. 10,increases
same,effect of RA treatment on Tem,[2]; FIG. 10,little effect
same,effect of RA treatment on Temra,[2]; FIG. 10,little effect
same,effect of RA treatment on naïve/Tscm,[2]; FIG. 10,significantly decreases
same,"CD103 expression, with vs without RA treatment",[2]; FIG. 19B,does not significantly affect
same,CD45RO+ T cells,[2]; [6],80.3%
same,CD62L+ T cells,[2]; [6],7.74%
same,naïve/Tscm (CD45RA+CD197+),[2]; [6],6.07%
same,CD45RO+ T cells,[2]; [7],84.5%
same,CD62L+ T cells vs without RA treatment,[2]; [7],significantly fewer
same,naïve/Tscm (CD45RA+CD197+),[2]; [7],4.25%
same,"CCR9+ cells, with vs without RA treatment","[2]; Wilcoxon test, p=0.0313",significantly increases
same,"CD25+ cells, Day 8 RA-treated vs Day 6 T cell products without RA treatment","[2]; Wilcoxon test, p=0.0313",significantly fewer
same,"CD38+ cells, with vs without RA treatment","[2]; Wilcoxon test, p=0.0313",significantly increases
same,CD38 MFI (Mean Fluorescence Intensity) in CD8+ T cells vs without RA treatment,"[2]; Wilcoxon test, p=0.0313",higher
same,"CD49a+ cells, with vs without RA treatment","[2]; Wilcoxon test, p=0.0313",significantly increases
same,"CD69+ cells, with vs without RA treatment","[2]; Wilcoxon test, p=0.0313",significantly increases
same,"ICOS+ cells, with vs without RA treatment","[2]; Wilcoxon test, p=0.0313",lower levels; also recorded: significantly decreases
same,"α4β7+ cells, with vs without RA treatment","[2]; Wilcoxon test, p=0.0313, α4+ and β7+ detected separately",significantly increases
same,CD197+ cells,[2]; between Day 6 and Day 8 T cell products with or without RA treatment,no significant difference
same,"CCR6, effect of RA treatment",[2]; data not shown,to low frequency and no differences (data not shown)
same,expression of CCR9 on DEX+CD3+CD8+α4β7+ cells vs without RA treatment,[2]; p=0.0313,significantly higher
same,α4β7 expression in CD3+CD8+DEX+ cells vs without RA treatment,[2]; p=0.0313,significantly higher
same,α4β7+ cells present in CD3+CD8+DEX+ cells,"[2]; with RA treatment, CD49d (α4) and β7",54.6%

# Source: patent publication US20210017492A1, “USE OF RETINOIC ACID IN T-CELL MANUFACTURING” (Immatics US, Inc., priority 2019, published 2021)
